Source: ChEMBL document CHEMBL2331291, “Targeting CCR2 Receptor To Treat Inflammation Diseases and Disorders” (ACS Med Chem Lett, 2013)

Assays:
[1] = molecular target: C-C chemokine receptor type 5 (Homo sapiens, UniProt P51681); experiment: Displacement of [125I]RANTES from human CCR5 expressed in CHO cell membranes coexpressing Gal6 after 6 hrs by scintillation counting analysis
[2] = molecular target: C-C chemokine receptor type 2 (Homo sapiens, UniProt P41597); experiment: Displacement of [125I]MCP1 from CCR2 in human THP1 cell membranes after 8 hrs by scintillation counting analysis; design: species or system THP-1
Sequence of C-C chemokine receptor type 2 (P41597 whole entry): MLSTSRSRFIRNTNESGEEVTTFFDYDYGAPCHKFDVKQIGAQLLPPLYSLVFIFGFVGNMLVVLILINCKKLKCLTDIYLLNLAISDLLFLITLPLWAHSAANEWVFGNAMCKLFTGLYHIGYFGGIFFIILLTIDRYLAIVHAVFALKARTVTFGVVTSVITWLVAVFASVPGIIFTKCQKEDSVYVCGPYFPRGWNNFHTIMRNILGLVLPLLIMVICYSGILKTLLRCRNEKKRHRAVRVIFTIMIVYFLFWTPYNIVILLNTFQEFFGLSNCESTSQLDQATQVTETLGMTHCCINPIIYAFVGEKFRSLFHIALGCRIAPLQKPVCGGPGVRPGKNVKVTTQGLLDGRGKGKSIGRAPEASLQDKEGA

Sequence of C-C chemokine receptor type 5 (P51681 whole entry): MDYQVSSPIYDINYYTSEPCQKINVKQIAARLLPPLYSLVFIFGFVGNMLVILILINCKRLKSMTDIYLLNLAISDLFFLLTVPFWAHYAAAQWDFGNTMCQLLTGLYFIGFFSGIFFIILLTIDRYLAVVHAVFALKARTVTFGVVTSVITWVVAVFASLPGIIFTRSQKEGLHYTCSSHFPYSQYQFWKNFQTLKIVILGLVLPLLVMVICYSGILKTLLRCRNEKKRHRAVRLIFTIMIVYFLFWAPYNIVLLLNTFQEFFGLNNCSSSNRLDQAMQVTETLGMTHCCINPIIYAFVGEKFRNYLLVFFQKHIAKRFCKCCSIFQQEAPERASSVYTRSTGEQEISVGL

Ki [1]: 150 nM | Ki [2]: 2 nM
Structure (SMILES): CO[C@@H]1COCC[C@@H]1NC1CCN(C(=O)c2nc(C(F)(F)F)nc(N3CCc4cc(C(F)(F)F)ccc4C3)c2C)CC1
